Results reported in ChEMBL document CHEMBL1201862, “PubChem BioAssay data set” (2004).
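Interpolation was linear, between the two tested concentrations surrounding the appropriate level; five concentrations were tested over 48 hours in 96-well plates. GI50: concentration for 50% inhibition of growth.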 Activity calls are given as the source filed them. No stated cut-off is given here; in the data, active = GI50 up to about 1.1 µM and inactive = higher.

Key:
Test in all cases: growth of human tumour cells (NCI), 48 h
786-0 = test system: 786-0
A498 = test system: A498
A549 = test system: A549
ACHN = test system: ACHN
BT-549 = test system: BT-549
CAKI-1 = test system: CAKI-1
COLO 205 = test system: COLO 205
DLD-1 = test system: DLD-1
DMS-114 = test system: DMS-114
DMS-273 = test system: DMS-273
DU-145 = test system: DU-145
EKVX = test system: EKVX
HCC 2998 = test system: HCC 2998
HL-60 = test system: HL-60
HOP-18 = test system: HOP-18
HOP-62 = test system: HOP-62
HOP-92 = test system: HOP-92
HT-29 = test system: HT-29
IGROV-1 = test system: IGROV-1
KM-20L2 = test system: KM-20L2
KM12 = test system: KM12
LOX IMVI = test system: LOX IMVI
LXFL 529 = test system: LXFL 529
M14 = test system: M14
M19-MEL = test system: M19-MEL
MCF7 = test system: MCF7
MDA-MB-231 = test system: MDA-MB-231
MDA-MB-435 = test system: MDA-MB-435
MDA-N = test system: MDA-N
Malme-3M = test system: Malme-3M
NCI-H226 = test system: NCI-H226
NCI-H23 = test system: NCI-H23
NCI-H522 = test system: NCI-H522
NCI/ADR-RES = test system: NCI/ADR-RES
OVCAR-3 = test system: OVCAR-3
OVCAR-4 = test system: OVCAR-4
OVCAR-5 = test system: OVCAR-5
PC-3 = test system: PC-3
RXF 393 = test system: RXF 393
RXF 631 = test system: RXF 631
SF-268 = test system: SF-268
SF-295 = test system: SF-295
SF-539 = test system: SF-539
SK-MEL-2 = test system: SK-MEL-2
SK-MEL-5 = test system: SK-MEL-5
SK-OV-3 = test system: SK-OV-3
SN12C = test system: SN12C
SNB-19 = test system: SNB-19
SNB-75 = test system: SNB-75
SNB-78 = test system: SNB-78
SR = test system: SR
T47D = test system: T47D
TK-10 = test system: TK-10
U-251 = test system: U-251
UACC-62 = test system: UACC-62
UO-31 = test system: UO-31
XF498 = test system: XF498
HCT-116 = test system: HCT-116
HCT-15 = test system: HCT-15
K562 = test system: K562
NCI-H460 = test system: NCI-H460
OVCAR-8 = test system: OVCAR-8
RPMI-8226 = test system: RPMI-8226
SK-MEL-28 = test system: SK-MEL-28
SW-620 = test system: SW-620
UACC-257 = test system: UACC-257

`COc1cc(Cc2nccc3cc(OC)c(OC)cc23)c(C(C)=O)cc1OC` was tested, and the GI50 (786-0) was 65.2 µM (inactive), the GI50 (A498) was > 300 µM (inactive) and the GI50 (A549) was > 300 µM (inactive). For the same compound, the GI50 (ACHN) was 153 µM (inactive), the GI50 (BT-549) was > 100 µM (inactive) and the GI50 (CAKI-1) was > 300 µM (inactive). For the same compound, the GI50 (COLO 205) was 18.4 µM (inactive), the GI50 (DLD-1) was 136 µM (inactive) and the GI50 (DMS-114) was 5.94 µM (inactive). For the same compound, the GI50 (DMS-273) was 14.9 µM (inactive), the GI50 (DU-145) was > 100 µM (inactive) and the GI50 (EKVX) was 205 µM (inactive). For the same compound, the GI50 (HCC 2998) was 80.7 µM (inactive), the GI50 (HL-60) was 59.7 µM (inactive) and the GI50 (HOP-18) was > 300 µM (inactive). For the same compound, the GI50 (HOP-62) was 39.4 µM (inactive), the GI50 (HOP-92) was 150 µM (inactive) and the GI50 (HT-29) was 199 µM (inactive). For the same compound, the GI50 (IGROV-1) was 173 µM (inactive), the GI50 (KM-20L2) was 56.9 µM (inactive) and the GI50 (KM12) was 160 µM (inactive). For the same compound, the GI50 (LOX IMVI) was 23.6 µM (inactive), the GI50 (LXFL 529) was 25.5 µM (inactive) and the GI50 (M14) was 187 µM (inactive). For the same compound, the GI50 (M19-MEL) was 64.9 µM (inactive), the GI50 (MCF7) was 144 µM (inactive) and the GI50 (MDA-MB-231) was 78.5 µM (inactive). The GI50 (MDA-MB-435) was 61 µM (inactive), the GI50 (MDA-N) was 28.2 µM (inactive) and the GI50 (Malme-3M) was 19.7 µM (inactive). For the same compound, the GI50 (NCI-H226) was 10.8 µM (inactive), the GI50 (NCI-H23) was 124 µM (inactive) and the GI50 (NCI-H522) was 10.2 µM (inactive). For the same compound, the GI50 (NCI/ADR-RES) was > 300 µM (inactive), the GI50 (OVCAR-3) was 34.5 µM (inactive) and the GI50 (OVCAR-4) was 6.71 µM (inactive). For the same compound, the GI50 (OVCAR-5) was > 300 µM (inactive), the GI50 (PC-3) was > 100 µM (inactive) and the GI50 (RXF 393) was 189 µM (inactive). For the same compound, the GI50 (RXF 631) was > 750 µM (inactive), the GI50 (SF-268) was 1.56 µM (inactive) and the GI50 (SF-295) was > 300 µM (inactive). For the same compound, the GI50 (SF-539) was > 94.8 µM (inactive), the GI50 (SK-MEL-2) was 226 µM (inactive) and the GI50 (SK-MEL-5) was 57.4 µM (inactive). For the same compound, the GI50 (SK-OV-3) was 128 µM (inactive), the GI50 (SN12C) was 1.76 µM (inactive) and the GI50 (SNB-19) was 300 µM (inactive). For the same compound, the GI50 (SNB-75) was 3.09 µM (inactive), the GI50 (SNB-78) was 74.6 µM (inactive) and the GI50 (SR) was > 750 µM (inactive). The GI50 (T47D) was 2.2 µM (inactive), the GI50 (TK-10) was 139 µM (inactive) and the GI50 (U-251) was 2.54 µM (inactive). The GI50 (UACC-62) was 53 µM (inactive), the GI50 (UO-31) was > 139 µM (inactive) and the GI50 (XF498) was 12.2 µM (inactive).

For `O=C1C(=O)N(C2C3CC4CC(C3)CC2C4)C(=O)C(=O)C1c1nc2ccccc2o1` (centres undefined), the GI50 (786-0) was 26.3 µM (inactive), the GI50 (A549) was > 100 µM (inactive) and the GI50 (ACHN) was > 100 µM (inactive). For the same compound, the GI50 (CAKI-1) was > 100 µM (inactive), the GI50 (COLO 205) was 51.6 µM (inactive) and the GI50 (DLD-1) was 37.3 µM (inactive). For the same compound, the GI50 (DMS-114) was 19.4 µM (inactive), the GI50 (DMS-273) was > 100 µM (inactive) and the GI50 (EKVX) was > 100 µM (inactive). For the same compound, the GI50 (HCC 2998) was 57.5 µM (inactive), the GI50 (HCT-116) was 37 µM (inactive) and the GI50 (HCT-15) was 43.6 µM. The GI50 (HOP-18) was 54.2 µM (inactive), the GI50 (HOP-62) was > 100 µM (inactive) and the GI50 (HOP-92) was 61.1 µM (inactive). For the same compound, the GI50 (HT-29) was 20.7 µM (inactive), the GI50 (IGROV-1) was 42.3 µM (inactive) and the GI50 (K562) was 21.1 µM (inactive). For the same compound, the GI50 (KM-20L2) was 82 µM (inactive), the GI50 (KM12) was > 100 µM (inactive) and the GI50 (LOX IMVI) was > 100 µM (inactive). The GI50 (LXFL 529) was 46.9 µM (inactive), the GI50 (M14) was 83 µM (inactive) and the GI50 (M19-MEL) was 55 µM (inactive). The GI50 (Malme-3M) was 36 µM (inactive), the GI50 (NCI-H226) was > 100 µM (inactive) and the GI50 (NCI-H23) was 41.6 µM (inactive). For the same compound, the GI50 (NCI-H460) was > 100 µM (inactive), the GI50 (OVCAR-3) was 25.1 µM (inactive) and the GI50 (OVCAR-4) was > 100 µM (inactive). The GI50 (OVCAR-5) was 23.2 µM (inactive), the GI50 (OVCAR-8) was > 100 µM (inactive) and the GI50 (RPMI-8226) was 52.4 µM (inactive). The GI50 (RXF 393) was 70 µM (inactive), the GI50 (RXF 631) was > 100 µM (inactive) and the GI50 (SF-268) was 92.9 µM (inactive). The GI50 (SF-295) was > 100 µM (inactive), the GI50 (SF-539) was 90.6 µM (inactive) and the GI50 (SK-MEL-28) was > 100 µM (inactive). The GI50 (SK-MEL-2) was > 100 µM (inactive), the GI50 (SK-OV-3) was > 100 µM (inactive) and the GI50 (SN12C) was 98.4 µM (inactive). The GI50 (SNB-19) was > 100 µM (inactive), the GI50 (SNB-75) was 33.1 µM (inactive) and the GI50 (SNB-78) was > 100 µM (inactive). The GI50 (SW-620) was 55 µM (inactive), the GI50 (TK-10) was > 100 µM (inactive) and the GI50 (U-251) was 23.1 µM (inactive). For the same compound, the GI50 (UACC-257) was 26.1 µM (inactive), the GI50 (UACC-62) was > 100 µM (inactive) and the GI50 (UO-31) was > 100 µM (inactive). For the same compound, the GI50 (XF498) was 74 µM (inactive).
